Results published in patent US20250136617A1 (The Regents of the University of Colorado, A Body Corporate, priority 2022, published 2025).
Read-outs that look alike come from different tables or passages of the source.

Tests used:
Assay type in all cases: cell-based
[1] = system: CEM-CCRF human lymphoblast cells; assay: Transwell migration assay in CEM-CCRF lymphoblasts; conditions: for EC50: read-out: Migration CEM EC50
Description: Thus, to confirm CXCR4 functional activity, UCUF-728 was evaluated in a 96 w transwell migration assay in CEM human lymphoblast cells.
CEM-CCRF (ATCC CCL-119) were suspended in RPMI 1640 (Corning; 10-040-CV) at 5.0×10^5 cells/mL and allowed to incubate in cell culture incubator at 37° C. with 5% CO2 for one hour. […] Plates were reassembled and placed in a cell culture incubator at 37° C. with 5% CO2 for three hours. After incubation, Multi-Screen plate was disassembled and 100 μl of solution was collected from compound receiver tray and transferred to 96 well luminescent plate (Thermo Scientific; 265302) and an equal volume of ATPLite Istep luminescence reagent (Perkin Elmer, Waltham, MA; 6016731) was added to each well. Luminescence was measured using the CLARIOstar Plus (BMG LABTECH Inc., Cary, NC).

[2] = target: T1, CXCR4 (Homo sapiens, UniProt P61073); assay: β-arrestin recruitment, 384-well, Tango CXCR4-bla U2OS cells, normalized to SDF-1α; parameters: host or cells: U2OS; conditions: normalized to SDF-1; for EC50: read-out: TANGO β-arrestin EC50; for Emax: U2OS, read-out: TANGO β-arrestin Emax (%)
T1 sequence (P61073 whole entry): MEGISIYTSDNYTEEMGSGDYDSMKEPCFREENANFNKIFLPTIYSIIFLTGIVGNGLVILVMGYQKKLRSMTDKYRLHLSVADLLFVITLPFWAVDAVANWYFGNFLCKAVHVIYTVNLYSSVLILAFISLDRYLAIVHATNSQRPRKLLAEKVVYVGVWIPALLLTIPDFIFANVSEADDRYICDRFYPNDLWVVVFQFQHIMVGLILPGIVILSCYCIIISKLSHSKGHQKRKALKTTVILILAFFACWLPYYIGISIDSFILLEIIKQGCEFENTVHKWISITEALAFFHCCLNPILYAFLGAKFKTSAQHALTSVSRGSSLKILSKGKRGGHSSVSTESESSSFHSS
Description: Tango™ CXCR4-bla U2OS Cells (Invitrogen; K1779) were used for (β-arrestin recruitment assays and maintained as a monolayer culture in McCoy's 5a (Corning; 10-050-CV) supplemented with 10% dialyzed Fetal Bovine Serum (Gibco; 26400-044), 0.1 mM MEM Non-essential amino acids solution, 25 mM HEPES solution (Corning; 25-060-CI), 1 mM Sodium Pyruvate (Gibco; 11360-070), 200 μg/mL Zeocin selection reagent (Gibco; R25001), 50 μg/mL Hygromycin B (Gibco, 10687010), and 100 μg/mL Geneticin (G418 Sulfate) (Gibco, 10131035). U2OS cells were subcultured twice weekly by 0.05% Trypsin-EDTA treatment (Corning; 25-051-CI) and passaged to continue exponential growth phase for cell signaling assays. All cell cultures were maintained in cell culture incubators at 37° C. with 5% CO2. CHO-K1 CXCR4 cells (DiscoverX, Fremont, CA, USA) were used for cAMP inhibition assays and maintained as a monolayer culture in DMEM/F12 (Corning; 10-091-CV) supplemented with 10% Fetal Bovine Serum (Corning; 35-011-CV) and 100IU penicillin, […] streptomycin sulfate (Corning; 30-002-CI) and […] G418 (Gibco; 101310350. Cells were subculture 2 times weekly by o.o5% Trypsin-EDTA treatment (Corning; 25-051-CI) and passaged to continue exponential growth phase for cell signaling assays. All cell cultures were maintained in cell culture incubators at 37° C. with 5% CO2.CEM-CCRF cells (ATCC CCL-119) were used in both the migration and calcium flux assays and were cultured in growth media consisting of RPMI 1640 (Corning; 10-040-CV) supplemented with 10% Fetal Bovine Serum (Corning; 35-011-CV), and 100 IU penicillin, […] streptomycin sulfate (Corning; 30-002-CI). Cells were maintained in suspension and sub-cultured twice weekly to maintain cell densities between 0.8×10^6 cells/mL and 2.5×10^6 cells/mL to maintain exponential growth phase. Cells were harvested for use in migration and calcium flux assays at 2.0×10^6 cells/mL to 2.5×10^6 cells/mL and resuspended in assay media to desired density for respective experiments.
Tango™ CXCR4-bla U2OS Cells were resuspended in assay media consisting of DMEM (Corning; Corning, NY) supplemented with 1% dialyzed Fetal bovine serum, 0.1 mM MEM Non-essential amino acids solution, 25 mM HEPES solution (Corning; Corning, NY), 1 mM Sodium Pyruvate and 100 IU penicillin, […] streptomycin sulfate (Corning; Corning, NY) at a density of 3.0×10^5 cells/ml. Assay media FreeStyle 293 expression Medium (Gibco; 12338018) was used for testing the thiadiazine scaffold CXCR4 agonists. Cells suspension was dispensed at 30 μl per well into assay plate and incubated overnight in a cell culture incubator at 37° C. with 5% CO2. […] Following overnight incubation, LiveBlazer FRET B/G Loading Kit (Invitrogen; K1095) working reagent was prepared according to supplier guidelines and 6 μl of solution was dispensed into each well; 8 μL of solution for testing the thiadiazine scaffold CXCR4 agonists. Assay plate was covered and incubated in a dark place for two hours and Fluorescence Intensity was measured using the BMG LABTECH CLARIOstar Plus (BMG LABTECH Inc., Cary, NC) according to the LiveBlazer FRET B/G Loading Kit excitation and emission measurement guidelines.
Results are expressed as mean±SD for 3 to 5 independent experiments. Statistically significant differences in gene expression between two groups were assessed by Student's T-test, ANOVA with an appropriate post hoc test was be used for multiple comparisons. P<0.05 was considered to be statistically significant. All concentration response curves were analyzed to determine EC50 and Emax using the following equation:
where Y is the normalized response (0-100%), X is the log of concentration of compound tested, and the Hill slope is equal to 1.0% and 100% activity are specific to each assay. […]

[3] = target: T1, CXCR4; assay: primary 1536 w β-arrestin recruitment assay (FRET, β-lactamase reporter) in U2OS cells overexpressing CXCR4; parameters: host or cells: U2OS; conditions: for Emax: U2OS, read-out: CXCR4 b-arrestin Emax (%); for activity in primary β-arrestin assay: SAR discussion
Description: In an effort to identify CXCR4 activators from the NIH Molecular Library Small Molecule Repository (MLSMR), a primary screening assay was developed to measure β-arrestin recruitment to the activated G-protein coupled receptor by Florescence Resonance Energy Transfer (FRET) in U2OS cells overexpressing the CXCR4 receptor engineered with a β-lactamase (bla) reporter system (Invitrogen cat #K1779). CXCR4-bla cells plated in 1536 w were stimulated in the presence of 10 uM compound concentration. […] Using this approach, 370,620 compounds from the NIH MLSMR were successfully screened and 303 hits were identified (hit rate=0.08%; Z′=0.83). […] These compounds were graded according to activity and structure resulting in 86 compounds that met criteria as potential CXCR4 agonists for further characterization.
Chemical stability, synthetic tractability, solubility and complete dose response and potency criteria led to the prioritization of the 5-aryl-2-cyclopropyl oxazole scaffold, represented by primary hit Compound 2 (Table 1). Early structure-activity relationship was established around the 5-aryl-2-cyclopropyl oxazole core with commercially available analogs with diverse substituents in the sulfonanilide ring of the scaffold. […] Keeping the 2-OMe substituent constant a small set of electron withdrawing and electron rich substituents at the 5-position of the anilide ring were screened (entries 16-19).

How did the “Migration CEM Emax (%)” value [1] turn out when `CCOC(=O)C1CCN(c2ccc(C3=Nn4c(nnc4-c4ccccc4OCC)SC3)cc2)C1` (centres unmarked) [Entry 66] was run?
Its value is “B (35 < B < 70)”.

And the EC50 [1]?
Its EC50 is less than 5 µM.

And the “TANGO β-arrestin Emax (%)” value [2]?
The value was “C (C ≤ 35)”.

What about the EC50 [2] of the same compound?
Its EC50 is greater than 10 µM.

Which Emax ([1]; Homo sapiens) does the source give for `CCOc1ccccc1-c1nnc2n1N=C(c1ccc(C(=O)Nc3ccccc3)cc1)CS2` [Entry 69] here?
The Emax was 35 to 70%.

And the EC50 ([1]; Homo sapiens)?
Its EC50 is less than 5 µM.

What about the Emax [2] of the same compound?
The Emax was less than 35%.

And the EC50 [2]?
Its EC50 is less than 5 µM.

Which results are given for `CCOc1ccccc1-c1nnc2n1N=C(c1ccc(C(=O)O)cc1)CS2` [Entry 70]?
Emax ([1]; Homo sapiens): 35 to 70%; EC50 ([1]; Homo sapiens): < 5 µM; EC50 [2]: > 10 µM

What does the source list for `CCOc1ccccc1-c1nnc2n1N=C(c1ccc(C(=O)OC)cc1)CS2` [Entry 71]?
Emax ([1]; Homo sapiens): 35 to 70%; EC50 ([1]; Homo sapiens): < 5 µM; Emax [2]: < 35%; EC50 [2]: < 5 µM

`COc1ccc(OC)c(-c2nnc3n2N=C(c2ccc(N4CCC4)cc2)CS3)c1` [Entry 80] was tested. Which Emax ([1]; Homo sapiens) did it give?
Its Emax is 35 to 70%.

And the EC50 ([1]; Homo sapiens)?
The EC50 was less than 5 µM.

What about the Emax [2] of the same compound?
The Emax was less than 35%.

And the EC50 [2]?
The EC50 was less than 5 µM.

With `CCc1ccccc1NS(=O)(=O)c1ccc(-c2cnc(C3CC3)o2)cc1` [compound 3] as the compound, how does the Emax [3] read?
The Emax was 38%.

`CCOc1ccccc1NS(=O)(=O)c1ccc(-c2cnc(C3CC3)o2)cc1` [compound 5] was tested. Which EC50 ([3]; 1536 w screening platform) did it give?
The EC50 was 1 µM.

And the Emax [3]?
Its Emax is 46%.

Which Emax [3] does the source give for `CCOc1ccc(NS(=O)(=O)c2ccc(-c3cnc(C4CC4)o3)cc2)cc1` [compound 9] here?
Its Emax is 38%.

`Cc1cccc(NS(=O)(=O)c2ccc(-c3cnc(C4CC4)o3)cc2)c1C` [compound 10] was tested. Which Emax [3] did it give?
The Emax was 40%.

For `Cc1ccc(NS(=O)(=O)c2ccc(-c3cnc(C4CC4)o3)cc2)c(C)c1` [compound 12], which Emax [3] is on record?
The Emax was 38%.

`Cc1ccc(C)c(NS(=O)(=O)c2ccc(-c3cnc(C4CC4)o3)cc2)c1` [compound 13] was tested. Which “activity in primary β-arrestin assay” value [3] did it give?
Its value is “most active among the dimethyl analogs”.

And the Emax [3]?
The Emax was 42%.

For `Cc1cccc(C)c1NS(=O)(=O)c1ccc(-c2cnc(C3CC3)o2)cc1` [compound 14], which “activity in primary β-arrestin assay” value [3] is on record?
Its value is “most active among the dimethyl analogs”.

What about the Emax [3] of the same compound?
Its Emax is 45%.

For `Cc1cc(C)cc(NS(=O)(=O)c2ccc(-c3cnc(C4CC4)o3)cc2)c1` [compound 15], which Emax [3] is on record?
Its Emax is 39%.

`COc1ccc(F)cc1NS(=O)(=O)c1ccc(-c2cnc(C3CC3)o2)cc1` [compound 17] was tested. Which Emax [3] did it give?
The Emax was 42%.

For `COc1ccc(NS(=O)(=O)c2ccc(-c3cnc(C4CC4)o3)cc2)cc1OC` [compound 20], which “activity in primary β-arrestin assay” value [3] is on record?
The value was “inactive or had marginal activity”.
